According to PubChem BioAssay (NCI):
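Results reflect a 48-hour exposure of cells in 96-well plates to compound at five concentrations. GI50: concentration for 50% inhibition of growth. TGI: total growth inhibition.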

Legend:
Assay in all cases: growth of human tumour cells (NCI), 48 h
SF-539 CNS = tested on: SF-539 CNS
MALME-3M melanoma = tested on: MALME-3M melanoma
BT-549 breast = tested on: BT-549 breast
MCF7 breast = tested on: MCF7 breast
A498 renal = tested on: A498 renal
SNB-19 CNS = tested on: SNB-19 CNS
T-47D breast = tested on: T-47D breast
NCI-H460 lung = tested on: NCI-H460 lung
NCI-H522 lung = tested on: NCI-H522 lung
UACC-257 melanoma = tested on: UACC-257 melanoma

SMILES | GI50 (SF-539 CNS) | TGI (SF-539 CNS) | GI50 (MALME-3M melanoma) | TGI (MALME-3M melanoma) | GI50 (BT-549 breast) | TGI (BT-549 breast) | GI50 (MCF7 breast) | TGI (MCF7 breast) | GI50 (A498 renal) | TGI (A498 renal) | GI50 (SNB-19 CNS) | TGI (SNB-19 CNS) | GI50 (T-47D breast) | TGI (T-47D breast) | GI50 (NCI-H460 lung) | TGI (NCI-H460 lung) | GI50 (NCI-H522 lung) | TGI (NCI-H522 lung) | GI50 (UACC-257 melanoma) | TGI (UACC-257 melanoma)
c1ccc(C2ONC3=NCCN32)cc1 (centres undefined) | 46.6 µM | > 100 µM | 62.9 µM | > 100 µM | 79.6 µM | > 100 µM | 55.9 µM | > 100 µM | 1.97 µM | 9.02 µM | > 100 µM | > 100 µM | 44 µM | > 100 µM | 44.9 µM | > 100 µM | 44.5 µM | > 100 µM | > 100 µM | > 100 µM
CNC(=S)Nc1ccc(OC)c2ccccc12 |  | > 10 µM |  | > 10 µM |  | > 10 µM |  | > 10 µM |  |  |  | > 10 µM |  | > 10 µM |  |  |  | > 10 µM |  | > 10 µM
COc1cc(C)ccc1C(=O)c1ccc(C)cc1OC | 2.66 µM | 20.6 µM | 4.67 µM | > 100 µM | 4.23 µM | > 100 µM | 0.92 µM | > 100 µM | 1.24 µM | 39.6 µM | 7.31 µM | > 100 µM | 4.67 µM | > 100 µM | 3.39 µM | > 100 µM | 1.76 µM | 4.96 µM | 54.8 µM | > 100 µM
O=C(NCC1CC1)c1ccc(-c2cccc(C(=O)NC3CC3)c2)cc1 | > 25 µM | > 25 µM | > 25 µM | > 25 µM | > 25 µM | > 25 µM | > 25 µM | > 25 µM | > 15.8 µM | > 25 µM | > 25 µM | > 25 µM | > 25 µM | > 25 µM | > 25 µM | > 25 µM | > 25 µM | > 25 µM | > 25 µM | > 25 µM
Nc1ncn([C@@H]2S[C@H](CO)[C@@H](O)[C@@H]2F)c(=O)n1 | 9.8 µM | > 77.9 µM | 5.13 µM | > 100 µM | 54.7 µM | > 100 µM | 0.279 µM | > 100 µM | 0.267 µM |  | 0.662 µM | > 100 µM | > 100 µM | > 100 µM | 0.442 µM | > 100 µM | > 100 µM | > 100 µM | > 71.4 µM | > 100 µM
O=S(=O)(/N=c1\scc(-c2ccccc2)n1-c1ccccc1)c1ccc(N2N=C3c4ccccc4CC3C2c2ccc(Cl)cc2)cc1 (centres undefined) | 62.6 µM | > 100 µM |  |  | 41.4 µM | > 100 µM | > 100 µM | > 100 µM | 79.8 µM | > 100 µM | 78.8 µM | > 100 µM | > 100 µM | > 100 µM | > 100 µM | > 100 µM | 22.7 µM | 82.3 µM | 83.5 µM | > 100 µM
C/C(=N/O)c1cccc(Nc2cc(-n3nnc4ccccc43)nc3ccccc23)c1 | 1.62 µM | 5.88 µM | 16.8 µM | 48 µM | 19.5 µM | 54.7 µM | 14.4 µM | > 55.6 µM | 25 µM | 55.8 µM | 25.7 µM | > 100 µM | 34.6 µM | > 85.3 µM | 14.7 µM | 46.7 µM | 19.4 µM | > 57.5 µM | 22.7 µM | > 64.4 µM
COC(=O)C1=C(O)C(C(=O)OC)C2CC(=O)CC1C2(C)C (centres undefined) |  | > 100 µM |  | > 100 µM |  | > 100 µM |  | > 100 µM |  | > 100 µM |  | > 100 µM |  | > 100 µM |  | > 100 µM |  | > 100 µM |  | > 100 µM
CC(=O)c1c(O)c(C)c(O)c(Cc2c(O)c3c(c(C(=O)/C=C/c4ccccc4)c2O)OC(C)(C)C=C3)c1O |  | 26.5 µM |  | 12.6 µM |  | 8.77 µM |  | 19.9 µM |  | 6.71 µM |  | 19.4 µM |  | 7.89 µM |  | 16.4 µM |  | 11.5 µM |  | 7.16 µM
CC(CO)Nc1cc(-c2[nH]c3cccnc3c2-c2ccc(F)cc2)ccn1 (centres undefined) | > 25 µM | > 25 µM | 16.9 µM | > 25 µM | 16.1 µM | > 25 µM | 9.36 µM | > 25 µM | 4.36 µM | 25 µM | > 21.6 µM | > 25 µM | 17.1 µM | > 25 µM | 8.16 µM | > 25 µM | > 25 µM | > 25 µM | > 25 µM | > 25 µM
CCc1c2c(nc3ccc(OCc4ccc(B(O)O)cc4)cc13)-c1cc3c(c(=O)n1C2)COC(=O)[C@]3(O)CC | < 0.0117 µM | 0.155 µM | 0.0576 µM | 1.59 µM | 0.0432 µM | > 26.5 µM | < 0.01 µM |  | 0.0128 µM | 0.21 µM | < 0.01 µM | > 39.6 µM | < 0.01 µM | > 21.1 µM | < 0.0134 µM | 1.39 µM | < 0.0183 µM |  | 0.0943 µM | 2.06 µM
N#C[Se]Cc1cc(-c2ccccc2)n(-c2ccc(S(N)(=O)=O)cc2)n1 | 1.38 µM | 2.77 µM | 2.2 µM | 6.6 µM | 1.68 µM | 4.55 µM | 0.42 µM | 9.78 µM |  |  | 0.587 µM | 1.88 µM | 2.19 µM | 7.28 µM | 0.264 µM | 0.743 µM | 2.14 µM | 5.55 µM | 2.21 µM | 6.63 µM
O=C(Nc1cccc(Cl)c1)Nn1cnnc1 | > 50 µM | > 100 µM | > 50 µM | > 100 µM | > 50 µM | > 100 µM | > 50 µM | > 100 µM | > 50 µM | > 100 µM | > 50 µM | > 100 µM | > 50 µM | > 100 µM | > 50 µM | > 100 µM | > 50 µM | > 100 µM | > 50 µM | > 100 µM
O=C(Oc1cccnc1)c1cccnc1Nc1ccnc(C(F)(F)F)c1 |  |  | 13 µM | 69.8 µM | 5.2 µM | > 100 µM | 2.68 µM | > 100 µM | 19.6 µM | 41 µM | 48.9 µM | > 100 µM | 36.3 µM | > 100 µM | 40.4 µM | > 100 µM | 14.5 µM | > 100 µM | 27.1 µM | > 100 µM
